Measured values from patent publication US5206236A, “Method for the treatment of malaria” (priority 1991, dated 1993).
Entries after “also recorded” stand apart in the source; their conditions may differ. Where two headings read alike, the source gives them in different places.

Legend:
Assay type in all cases: cell-based
[1] = system: Plasmodium falciparum strain W2 (chloroquine-resistant, mefloquine-sensitive); assay: In vitro drug sensitivity assay (3H-hypoxanthine incorporation), strain W2; details: for IC50: Plasmodium falciparum
Procedure: (§1) Plasmodium falciparum strains W2 (chloroquine-resistant, mefloquine-sensitive) and D6 (mefloquine-resistant, chloroquine-sensitive)were cultured in a medium consisting of RPMI-1640, 25 mM HEPES, 25 mM NaHCO3, and 10% (v/v) fresh frozen human plasma. Into the wells of a 96 well microtiter plate there was placed 200 ul per well of a 1.5% erythrocyte suspension containing 0.2% to 0.4% parasitized erythrocytes containing serial dilutions of the test compounds. The plate was then placed in an anaerobic chamber, flushed with nitrogen gas and incubated at 37° C. After 24 hours, 25 ul per well of G-^3 H-hypoxanthine (1 mCi/ml) were added and the plate reincubated as above. After 42 hours, the cells were harvested with a multimash-type cell harvester onto glass microfiber paper. A scintillation counter was used to determine the incorporated of ^3 H-hypoxanthine. The activities of the compounds tested were determined by comparing the incorporation of ^3 H-hypoxanthine to drug concentration using computerized non-linear regression analysis. [Antimicrob. Agents Chemother. 16:710, 1979; Am.J.Trop.Med.Hygiene 34:209, 1985].

[2] = system: Plasmodium falciparum strain D6 (mefloquine-resistant, chloroquine-sensitive); assay: In vitro drug sensitivity assay (3H-hypoxanthine incorporation), strain D6; details: for IC50: Plasmodium falciparum
Procedure: as §1

[3] = system: Plasmodium falciparum strains W2 and D6; assay: In vitro drug sensitivity assay, overall efficacy over both strains; details: qualitative
Procedure: as §1

[4] = strain W2, 3H-hypoxanthine incorporation, 42 hours, 37° C, read-out: IC50 (uM), W2
[5] = strain D6, 3H-hypoxanthine incorporation, 42 hours, 37° C, read-out: IC50 (uM), D6

SMILES | IC50 [1, 4] [µM] | IC50 [2, 5] [µM] | further results
N=C(N)c1ccc(OCCCCCCOc2ccc(C(=N)N)cc2)cc1 [Example 9] | 0.345 | 0.118 | –
N=C(N)c1ccc(OCCCCOc2ccc(C(=N)N)cc2)cc1 [Example 3] | 0.12 | 0.057 | –
N=C(N)c1cccc(OCCCOc2cccc(C(=N)N)c2)c1 [Example 11] | 0.156 | 0.194 | –
CN1CCN=C1c1ccc(OCCCCCOc2ccc(C3=NCCN3C)cc2)cc1 [Example 16] | 1.82 | 0.089 | –
N=C(N)c1ccc(OCCCCCOc2ccc(C(=N)N)cc2[N+](=O)[O-])c([N+](=O)[O-])c1 [Example 5] | – | – | IC50 ([1]; W2, read-out: IC50 (uM), W2): 0.069 µM; IC50 ([2]; D6, read-out: IC50 (uM), D6): 0.071 µM
N=C(N)c1ccc(OCCCCCOc2ccc(C(=N)N)cc2Cl)c(Cl)c1 [Example 10] | 0.165 | 0.107 | –
N=C(N)c1cccc(OCCCCCOc2cccc(C(=N)N)c2)c1 [Example 13] | 0.08 | 0.069 | –
N=C(N)c1ccc(OCCCCCOc2ccc(C(=N)N)cc2)cc1 [Example 4, reference compound] | – | – | IC50 ([1]; W2, read-out: IC50 (uM), W2): 0.083 µM; IC50 ([2]; D6, read-out: IC50 (uM), D6): 0.038 µM; efficacy against malaria (in words) [3]: moderately effective against malaria
c1cc(C2=NCCN2)ccc1OCCCCCOc1ccc(C2=NCCN2)cc1 [Example 15] | 0.104 | 0.023 | efficacy against malaria (in words) [3]: Very close in therapeutic efficacy against malaria
N=C(N)c1cccc(OCCCCCCOc2cccc(C(=N)N)c2)c1 [Example 14] | 0.125 | 0.132 | –

More lines, main results first:

IC50 [1, 4] [µM] | IC50 [2, 5] [µM] | SMILES | further results
0.076 | 0.046 | N=C(N)c1ccc(OCCCCCOc2ccc(C(=N)N)cc2N)c(N)c1 [Example 6] | –
0.06 | 0.1 | COc1cc(C2=NCCN2)ccc1OCCCOc1ccc(C2=NCCN2)cc1OC [Example 17] | –
0.06 | 0.025 | c1cc(C2=NCCN2)ccc1OCCCOc1ccc(C2=NCCN2)cc1 [Example 18] | efficacy against malaria (in words) [3]: Very close in therapeutic efficacy against malaria
0.057 | 0.025 | N=C(N)c1ccc(NCCCCNc2ccc(C(=N)N)cc2)cc1 [Example 2] | –
0.066 | 0.106 | COc1cc(C(=N)N)ccc1OCCCCCOc1ccc(C(=N)N)cc1OC [Example 7] | –
0.022 | < 0.02 | N=C(N)c1ccc(NCCCCCNc2ccc(C(=N)N)cc2)cc1 [Example 8] | efficacy against the chloroquine-resistant strain (W2) (in words) ([1]; qualitative): most effective compound; efficacy against the mefloquine-resistant strain (D6) (in words) ([2]; qualitative): most effective compound; efficacy against malaria (in words) [3]: most efficacious product identified to date; also recorded: best compound for treating both strains of Plasmodium falciparum
0.065 | 0.077 | COc1cc(C(=N)N)ccc1OCCCOc1ccc(C(=N)N)cc1OC [Example 1] | –
0.043 | 0.046 | N=C(N)c1cccc(OCCCCOc2cccc(C(=N)N)c2)c1 [Example 12] | efficacy against malaria (in words) [3]: Very close in therapeutic efficacy against malaria
